In PubChem BioAssay (NCI):
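Compound exposure: 48 hours, 5 concentrations, 96-well plates. GI50 = concentration required for 50% inhibition of growth. The concentration for full growth arrest is given as TGI.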

How the values were obtained:
Assay in all cases: DTP human tumour cell line panel, 48 h
U251 CNS = tested on: U251 CNS
SNB-75 CNS = tested on: SNB-75 CNS
A549 NSCLC = tested on: A549 NSCLC
SK-OV-3 ovarian = tested on: SK-OV-3 ovarian
HCT-15 colon = tested on: HCT-15 colon
MALME-3M melanoma = tested on: MALME-3M melanoma
KM12 colon = tested on: KM12 colon
HOP-62 NSCLC = tested on: HOP-62 NSCLC
HS 578T breast = tested on: HS 578T breast
MOLT-4 leukemia = tested on: MOLT-4 leukemia
NCI/ADR-RES ovarian = tested on: NCI/ADR-RES ovarian
CCRF-CEM leukemia = tested on: CCRF-CEM leukemia
NCI-H226 lung = tested on: NCI-H226 lung
MDA-MB-468 breast = tested on: MDA-MB-468 breast
SK-MEL-28 melanoma = tested on: SK-MEL-28 melanoma
IGROV1 ovarian = tested on: IGROV1 ovarian
SW-620 colon = tested on: SW-620 colon
HT29 colon = tested on: HT29 colon
NCI-H23 lung = tested on: NCI-H23 lung
COLO 205 colon = tested on: COLO 205 colon
DU-145 prostate = tested on: DU-145 prostate
NCI-H522 lung = tested on: NCI-H522 lung
SK-MEL-2 melanoma = tested on: SK-MEL-2 melanoma
SN12C renal = tested on: SN12C renal
OVCAR-4 ovarian = tested on: OVCAR-4 ovarian
UACC-257 melanoma = tested on: UACC-257 melanoma
OVCAR-3 ovarian = tested on: OVCAR-3 ovarian
NCI-H460 lung = tested on: NCI-H460 lung
TK-10 renal = tested on: TK-10 renal
UO-31 renal = tested on: UO-31 renal
RXF 393 renal = tested on: RXF 393 renal
SNB-19 CNS = tested on: SNB-19 CNS
HCC-2998 colon = tested on: HCC-2998 colon
T-47D breast = tested on: T-47D breast
M14 melanoma = tested on: M14 melanoma
MDA-MB-231 breast = tested on: MDA-MB-231 breast
LOX IMVI melanoma = tested on: LOX IMVI melanoma
EKVX NSCLC = tested on: EKVX NSCLC
OVCAR-5 ovarian = tested on: OVCAR-5 ovarian
SK-MEL-5 melanoma = tested on: SK-MEL-5 melanoma
MCF7 breast = tested on: MCF7 breast
SF-539 CNS = tested on: SF-539 CNS
SF-268 CNS = tested on: SF-268 CNS
K-562 leukemia = tested on: K-562 leukemia
ACHN renal = tested on: ACHN renal
A498 renal = tested on: A498 renal
CAKI-1 renal = tested on: CAKI-1 renal
SF-295 CNS = tested on: SF-295 CNS
UACC-62 melanoma = tested on: UACC-62 melanoma
786-0 renal = tested on: 786-0 renal
BT-549 breast = tested on: BT-549 breast
HCT-116 colon = tested on: HCT-116 colon
RPMI-8226 leukemia = tested on: RPMI-8226 leukemia
PC-3 prostate = tested on: PC-3 prostate
MDA-MB-435 = tested on: MDA-MB-435
OVCAR-8 ovarian = tested on: OVCAR-8 ovarian
SR leukemia = tested on: SR leukemia
HL-60(TB) leukemia = tested on: HL-60(TB) leukemia
HOP-92 NSCLC = tested on: HOP-92 NSCLC

O=C(CNc1nc(-c2ccccc2)cs1)Nc1ccc([N+](=O)[O-])cc1
GI50 (U251 CNS): 2.85 µM
TGI (U251 CNS): 11.1 µM
GI50 (SNB-75 CNS): 3.16 µM
TGI (SNB-75 CNS): 15.5 µM
GI50 (A549 NSCLC): 9.71 µM
TGI (A549 NSCLC): 24.4 µM
GI50 (SK-OV-3 ovarian): 16.4 µM
TGI (SK-OV-3 ovarian): 40.1 µM
GI50 (HCT-15 colon): 3.47 µM
TGI (HCT-15 colon): 13.1 µM
GI50 (MALME-3M melanoma): 2.29 µM
TGI (MALME-3M melanoma): 6.21 µM
GI50 (KM12 colon): 8.27 µM
TGI (KM12 colon): 20.7 µM
GI50 (HOP-62 NSCLC): 14.4 µM
TGI (HOP-62 NSCLC): 35 µM
GI50 (HS 578T breast): 10.2 µM
TGI (HS 578T breast): > 100 µM
GI50 (MOLT-4 leukemia): 3.66 µM
TGI (MOLT-4 leukemia): 23 µM
GI50 (NCI/ADR-RES ovarian): 3.77 µM
TGI (NCI/ADR-RES ovarian): 20.4 µM
GI50 (CCRF-CEM leukemia): 2.71 µM
TGI (CCRF-CEM leukemia): 13.4 µM
GI50 (NCI-H226 lung): 12.5 µM
TGI (NCI-H226 lung): 28.3 µM
GI50 (MDA-MB-468 breast): 1.55 µM
TGI (MDA-MB-468 breast): 3.16 µM
GI50 (SK-MEL-28 melanoma): 10.3 µM
TGI (SK-MEL-28 melanoma): 21.9 µM
GI50 (IGROV1 ovarian): 3.84 µM
TGI (IGROV1 ovarian): 16 µM
GI50 (SW-620 colon): 5.01 µM
TGI (SW-620 colon): 18 µM
GI50 (HT29 colon): 3.73 µM
TGI (HT29 colon): 15.8 µM
GI50 (NCI-H23 lung): 3.32 µM
TGI (NCI-H23 lung): 13.7 µM
GI50 (COLO 205 colon): 4.59 µM
TGI (COLO 205 colon): 15.9 µM
GI50 (DU-145 prostate): 10.9 µM
TGI (DU-145 prostate): 25.4 µM
GI50 (NCI-H522 lung): 1.9 µM
TGI (NCI-H522 lung): 3.92 µM
GI50 (SK-MEL-2 melanoma): 14.2 µM
TGI (SK-MEL-2 melanoma): 30.5 µM
GI50 (SN12C renal): 3.37 µM
TGI (SN12C renal): 13.6 µM
GI50 (OVCAR-4 ovarian): 3.52 µM
TGI (OVCAR-4 ovarian): 12.8 µM
GI50 (UACC-257 melanoma): 8.41 µM
TGI (UACC-257 melanoma): 21.8 µM
GI50 (OVCAR-3 ovarian): 3.65 µM
TGI (OVCAR-3 ovarian): 13.3 µM
GI50 (NCI-H460 lung): 10.2 µM
TGI (NCI-H460 lung): 23.8 µM
GI50 (TK-10 renal): 11.1 µM
TGI (TK-10 renal): 24.2 µM
GI50 (UO-31 renal): 4.58 µM
TGI (UO-31 renal): 18.1 µM
GI50 (RXF 393 renal): 2.77 µM
GI50 (SNB-19 CNS): 10.7 µM
TGI (SNB-19 CNS): 22.5 µM
GI50 (HCC-2998 colon): 3.5 µM
TGI (HCC-2998 colon): 12.9 µM
GI50 (T-47D breast): 4.23 µM
TGI (T-47D breast): 21.3 µM
GI50 (M14 melanoma): 5.07 µM
TGI (M14 melanoma): 19.7 µM
GI50 (MDA-MB-231 breast): 3.07 µM
TGI (MDA-MB-231 breast): 12.5 µM
GI50 (LOX IMVI melanoma): 2.2 µM
TGI (LOX IMVI melanoma): 11.1 µM
GI50 (EKVX NSCLC): 3.8 µM
TGI (EKVX NSCLC): 14.6 µM
GI50 (OVCAR-5 ovarian): 7.22 µM
TGI (OVCAR-5 ovarian): 20.1 µM
GI50 (SK-MEL-5 melanoma): 5.82 µM
TGI (SK-MEL-5 melanoma): 18.6 µM
GI50 (MCF7 breast): 2.9 µM
TGI (MCF7 breast): 12.1 µM
GI50 (SF-539 CNS): 3.19 µM
TGI (SF-539 CNS): 10.2 µM
GI50 (SF-268 CNS): 4.82 µM
TGI (SF-268 CNS): 29.5 µM
GI50 (K-562 leukemia): 3.26 µM
TGI (K-562 leukemia): > 100 µM
GI50 (ACHN renal): 2.39 µM
TGI (ACHN renal): 6.98 µM
GI50 (A498 renal): 16.9 µM
TGI (A498 renal): 32.3 µM
GI50 (CAKI-1 renal): 5.26 µM
TGI (CAKI-1 renal): 18.3 µM
GI50 (SF-295 CNS): 8.63 µM
TGI (SF-295 CNS): 21.6 µM
GI50 (UACC-62 melanoma): 4.41 µM
TGI (UACC-62 melanoma): 17 µM
GI50 (786-0 renal): 4.1 µM
TGI (786-0 renal): 14.1 µM
GI50 (BT-549 breast): 2.35 µM
TGI (BT-549 breast): 10.1 µM
GI50 (HCT-116 colon): 3.22 µM
TGI (HCT-116 colon): 14.2 µM
GI50 (RPMI-8226 leukemia): 3.25 µM
TGI (RPMI-8226 leukemia): 19.8 µM
GI50 (PC-3 prostate): 4.75 µM
TGI (PC-3 prostate): 23.2 µM
GI50 (MDA-MB-435): 6.79 µM
TGI (MDA-MB-435): 19.2 µM
GI50 (OVCAR-8 ovarian): 11.1 µM
TGI (OVCAR-8 ovarian): 28.2 µM
GI50 (SR leukemia): 6.62 µM
TGI (SR leukemia): 41.3 µM
GI50 (HL-60(TB) leukemia): 2.97 µM
TGI (HL-60(TB) leukemia): 10.6 µM
GI50 (HOP-92 NSCLC): 6.65 µM
TGI (HOP-92 NSCLC): 25.1 µM
